Source: ChEMBL document CHEMBL1157189, “S-Ribosylhomocysteine analogues with the carbon-5 and sulfur atoms replaced by a vinyl or (fluoro)vinyl unit” (Bioorg Med Chem, 2008)

System: Bacillus subtilis
Assay: Inhibition of CO2+ substituted Bacillus subtilis S-ribosyl-homocysteinase

Ki: 96 µM
Compound: O[C@@H]1C[C@@H](/C=C/F)O[C@@H]1O (mixture of isomers)
